The record followed here is ChEMBL document CHEMBL5620351, “Advancing beyond reverse transcriptase inhibitors: The new era of hepatitis B polymerase inhibitors” (Eur J Med Chem, 2023).

The test system of assay [1] is Huh-7. Put plainly: Cytotoxicity against human Huh-7 cells assessed as reduction in cell viability by Neutral Red staining based assay. Type of assay: functional.
The subject of assay [2] is Hepatitis B virus. Put plainly: Antiviral activity against lamivudine resistant HBV infected in human HepG2 cells assessed as reduction in of intracellular HBV DNA incubated for 5 days by Southern blotting analysis. Type of assay: functional, organism-based. The conditions noted are these: HepG2, 120 h.
In assay [3] the test system is Hepatitis B virus. Put plainly: Antiviral activity against adefovir-resistant HBV infected in human HepG2 cells assessed as reduction in of intracellular HBV DNA incubated for 5 days by Southern blotting analysis. The format is functional, organism-based. The conditions noted are these: HepG2, 120 h.
The subject of assay [4] is Hepatitis B virus. Put plainly: Antiviral activity against HBV infected in human HePAD38 cells assessed as reduction in of intracellular HBV DNA incubated for 5 days by Southern blotting analysis. The format is functional, organism-based. As to conditions: HePAD38, 120 h.
Assay [5] has as its system Huh-7. Put plainly: Cytotoxicity against human Huh-7 cells assessed as reduction in cell viability by LDH release assay. Type of assay: functional. For orientation: Release of lactate dehydrogenase indicates damage to the cell membrane.
For assay [6], the system named is Hepatitis B virus. Put plainly: Antiviral activity against lamivudine-resistant HBV infected in human HepG2 cells assessed as reduction in HBV DNA replication by RT-PCR analysis. Type of assay: functional, organism-based.
In assay [7] the test system is Hepatitis B virus. Put plainly: Antiviral activity against wild type HBV infected in human HepG2 cells assessed as reduction in HBV DNA replication by RT-PCR analysis. Type of assay: functional, organism-based.
For assay [8], the system named is Hepatitis B virus. Put plainly: Antiviral activity against HBV infected in human HepG2.2.15.7 cells assessed as reduction in HBV DNA replication by TR-PCR analysis. The format is functional, organism-based.

As usually defined, the CC50 is the concentration giving 50% cytotoxicity. A word on the EC50: it is the concentration at which the effect is half-maximal. For `Nc1nc(O)c2ncn([C@H]3CC[C@@H](CO)O3)c2n1`, the CC50 was 26 µM in the assay with Huh-7 [1] and 97 µM in the assay with Huh-7 [5]. Further, the EC50 with Hepatitis B virus [2] was 0.89 µM; in the assay with Hepatitis B virus [3], 0.66 µM; in the assay with Hepatitis B virus [4] it was 0.3 µM.

Consider `Clc1ccc(/C=C/c2cc(Cl)cc(Cl)c2)cc1`, for which the EC50 came out at 16.4 µM with Hepatitis B virus [6], 13.3 µM in the assay on Hepatitis B virus [7] and 14.4 µM in the assay on Hepatitis B virus [8].
